PubChem BioAssay AID250 (DTP/NCI, 2004)
Values joined by “and” are separate entries in the source; they are usually repeats but may differ in a detail not shown here. Equal entries are not always repeated. Toxic doses and inconclusive results are not listed. The calls were made as follows: active = survival T/C of 150% or more; inactive = T/C below 125% in these data.

Test system: BDF1 mice, L1210 leukemia sc, survival T/C
Experiment: NCI In Vivo Anticancer Drug Screen. Data for tumor model L1210 Leukemia (subcutaneous) in B6D2F1 (BDF1) mice
Conditions: endpoint: median survival time, higher = longer survival
Summary of the method: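 Read-out: T/C ratio, i.e. survival or tumor size in treated mice over that in vehicle-treated controls, from mice bearing transplantable tumors.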

[1] = dose: 14.0 mg/kg/injection, schedule: Q01DX Z (sc), vehicle: methylcellulose (MC)
[2] = dose: 23.0 mg/kg/injection, schedule: Q01DX Z (sc), vehicle: methylcellulose (MC)
[3] = dose: 39.0 mg/kg/injection, schedule: Q01DX Z (sc), vehicle: methylcellulose (MC)
[4] = dose: 65.0 mg/kg/injection, schedule: Q01DX Z (sc), vehicle: methylcellulose (MC)
[5] = dose: 108.0 mg/kg/injection, schedule: Q01DX Z (sc), vehicle: methylcellulose (MC)
[6] = dose: 180.0 mg/kg/injection, schedule: Q01DX Z (sc), vehicle: methylcellulose (MC)
[7] = dose: 300.0 mg/kg/injection, schedule: Q01DX Z (sc), vehicle: methylcellulose (MC)
[8] = dose: 23.0 mg/kg/injection, schedule: Q01DX Z (sc), vehicle: water
[9] = dose: 500.0 mg/kg/injection, schedule: Q01DX Z (sc), vehicle: methylcellulose (MC)

Measured: T/C

C=CCCCCCCCCC(C)(N)C(=O)O (configuration not stated)
inactive: [1] 100 % of control | [2] 90 % of control | [3] 90 % of control | [4] 95 % of control | [5] 95 % of control | [6] 100 % of control | [7] 95 % of control

CSc1ncnc2nc[nH]c12
inactive: dose: 38.9 mg/kg/injection, schedule: Q01DX Z (sc), vehicle: methylcellulose (MC) 95 % of control | dose: 64.8 mg/kg/injection, schedule: Q01DX Z (sc), vehicle: methylcellulose (MC) 105 % of control | [5] 110 % of control | [6] 100 % of control

Nc1ncn(C2OC(CO)C(O)C2O)c(=O)n1 (configuration not stated)
inactive: dose: 0.5 mg/kg/injection, schedule: Q01DX009 (sc), vehicle: saline 105 % of control | dose: 0.5 mg/kg/injection, schedule: Q03HX024 (sc), vehicle: saline 104 % of control | dose: 1.0 mg/kg/injection, schedule: Q01DX009 (sc), vehicle: saline 110 % of control and 111 % of control (2×) | dose: 1.0 mg/kg/injection, schedule: Q03HX024 (sc), vehicle: saline 118 % of control | dose: 1.0 mg/kg/injection, schedule: Q05DX009 (sc), vehicle: saline 116 % of control and 119 % of control | dose: 2.0 mg/kg/injection, schedule: Q01DX009 (sc), vehicle: saline 120 % of control and 121 % of control and 122 % of control | dose: 2.0 mg/kg/injection, schedule: Q04DX003 (sc), vehicle: saline 100 % of control | dose: 2.0 mg/kg/injection, schedule: Q05DX009 (sc), vehicle: saline 122 % of control and 123 % of control | dose: 3.0 mg/kg/injection, schedule: Q04DX003 (sc), vehicle: saline 122 % of control | dose: 4.0 mg/kg/injection, schedule: Q01DX001 (sc), vehicle: saline 100 % of control | dose: 4.0 mg/kg/injection, schedule: Q04DX003 (sc), vehicle: saline 100 % of control | dose: 6.0 mg/kg/injection, schedule: Q01DX009 (ip), vehicle: saline 88 % of control | dose: 6.0 mg/kg/injection, schedule: Q01DX009 (sc), vehicle: saline 100 % of control | dose: 8.0 mg/kg/injection, schedule: Q01DX001 (sc), vehicle: saline 105 % of control | dose: 8.0 mg/kg/injection, schedule: Q01DX009 (sc), vehicle: saline 105 % of control | dose: 8.0 mg/kg/injection, schedule: Q03HX024 (sc), vehicle: saline 110 % of control | dose: 8.0 mg/kg/injection, schedule: Q04DX003 (sc), vehicle: saline 110 % of control | dose: 16.0 mg/kg/injection, schedule: Q01DX001 (sc), vehicle: saline 120 % of control | dose: 16.0 mg/kg/injection, schedule: Q01DX009 (sc), vehicle: saline 108 % of control and 111 % of control | dose: 16.0 mg/kg/injection, schedule: Q04DX003 (sc), vehicle: saline 120 % of control | dose: 16.0 mg/kg/injection, schedule: Q05DX009 (sc), vehicle: saline 111 % of control and 113 % of control | dose: 24.0 mg/kg/injection, schedule: Q04DX003 (sc), vehicle: saline 105 % of control | dose: 48.0 mg/kg/injection, schedule: Q04DX003 (ip), vehicle: saline 100 % of control | dose: 48.0 mg/kg/injection, schedule: Q04DX003 (sc), vehicle: saline 122 % of control
active: dose: 0.75 mg/kg/injection, schedule: Q01DX009 (ip), vehicle: saline 155 % of control | dose: 0.75 mg/kg/injection, schedule: Q01DX009 (sc), vehicle: saline 155 % of control | dose: 1.5 mg/kg/injection, schedule: Q01DX009 (ip), vehicle: saline 205 % of control | dose: 1.5 mg/kg/injection, schedule: Q01DX009 (sc), vehicle: saline 200 % of control | dose: 3.0 mg/kg/injection, schedule: Q01DX009 (sc), vehicle: saline 172 % of control | dose: 4.0 mg/kg/injection, schedule: Q03HX024 (sc), vehicle: saline 151 % of control | dose: 6.0 mg/kg/injection, schedule: Q04DX003 (ip), vehicle: saline 200 % of control | dose: 6.0 mg/kg/injection, schedule: Q04DX003 (sc), vehicle: saline 183 % of control | dose: 12.0 mg/kg/injection, schedule: Q01DX001 (sc), vehicle: saline 155 % of control | dose: 12.0 mg/kg/injection, schedule: Q04DX003 (ip), vehicle: saline 150 % of control | dose: 12.0 mg/kg/injection, schedule: Q04DX003 (sc), vehicle: saline 150 % of control | dose: 24.0 mg/kg/injection, schedule: Q01DX001 (ip), vehicle: saline 155 % of control | dose: 24.0 mg/kg/injection, schedule: Q01DX001 (sc), vehicle: saline 166 % of control | dose: 48.0 mg/kg/injection, schedule: Q01DX001 (ip), vehicle: saline 166 % of control | dose: 48.0 mg/kg/injection, schedule: Q01DX001 (sc), vehicle: saline 166 % of control

CN=C(NC)c1ccc(NC(=O)c2ccc(C(=O)Nc3ccc(C(=NC)NC)cc3)c(Cl)c2)cc1
inactive: [3] 100 % of control | [4] 100 % of control | [5] 100 % of control | [6] 105 % of control | [7] 100 % of control

C[n+]1c2cc(N)ccc2cc2ccc(N)cc21
inactive: [8] 90 % of control and 100 % of control

Clc1ncnc2c1ncn2C1CCCO1 (configuration not stated)
inactive: dose: 8.4 mg/kg/injection, schedule: Q01DX Z (sc), vehicle: methylcellulose (MC) 100 % of control | [1] 100 % of control | [2] 100 % of control | [3] 100 % of control | [4] 100 % of control | [5] 100 % of control | [6] 100 % of control | [7] 110 % of control | [9] 100 % of control

O=c1[nH]c(=O)n(C2OC(CO)C(O)C2O)cc1Br (configuration not stated)
inactive: dose: 39.0 mg/kg/injection, schedule: Q01DX Z (sc), vehicle: saline 100 % of control | dose: 65.0 mg/kg/injection, schedule: Q01DX Z (sc), vehicle: saline 100 % of control | dose: 108.0 mg/kg/injection, schedule: Q01DX Z (sc), vehicle: saline 100 % of control | dose: 180.0 mg/kg/injection, schedule: Q01DX Z (sc), vehicle: saline 94 % of control and 100 % of control | dose: 300.0 mg/kg/injection, schedule: Q01DX Z (sc), vehicle: saline 100 % of control and 105 % of control | dose: 500.0 mg/kg/injection, schedule: Q01DX Z (sc), vehicle: saline 94 % of control and 100 % of control | dose: 833.0 mg/kg/injection, schedule: Q01DX Z (sc), vehicle: saline 105 % of control | dose: 1388.0 mg/kg/injection, schedule: Q01DX Z (sc), vehicle: saline 94 % of control

O=NN(CCF)C(=O)NC1CCCCC1
active: dose: 8.4 mg/kg/injection, schedule: Q01DX Z (sc), vehicle: carboxymethylcellulose (CMC) 289 % of control | dose: 14.0 mg/kg/injection, schedule: Q01DX Z (sc), vehicle: carboxymethylcellulose (CMC) 347 % of control | dose: 23.0 mg/kg/injection, schedule: Q01DX Z (oral), vehicle: carboxymethylcellulose (CMC) 321 % of control | dose: 23.0 mg/kg/injection, schedule: Q01DX Z (sc), vehicle: carboxymethylcellulose (CMC) 305 % of control | dose: 39.0 mg/kg/injection, schedule: Q01DX Z (oral), vehicle: carboxymethylcellulose (CMC) 242 % of control | dose: 65.0 mg/kg/injection, schedule: Q01DX Z (oral), vehicle: carboxymethylcellulose (CMC) 163 % of control
inactive: dose: 108.0 mg/kg/injection, schedule: Q01DX Z (oral), vehicle: carboxymethylcellulose (CMC) 121 % of control

Nc1ncc(N)c(N)n1
inactive: [3] 100 % of control | dose: 65.0 mg/kg/injection, schedule: Q01DX Z (sc), vehicle: carboxymethylcellulose (CMC) 100 % of control | [4] 100 % of control | dose: 108.0 mg/kg/injection, schedule: Q01DX Z (sc), vehicle: carboxymethylcellulose (CMC) 107 % of control | [5] 100 % of control | dose: 180.0 mg/kg/injection, schedule: Q01DX Z (sc), vehicle: carboxymethylcellulose (CMC) 100 % of control | [6] 100 % of control | dose: 300.0 mg/kg/injection, schedule: Q01DX Z (sc), vehicle: carboxymethylcellulose (CMC) 100 % of control | [7] 100 % of control | dose: 500.0 mg/kg/injection, schedule: Q01DX Z (sc), vehicle: carboxymethylcellulose (CMC) 100 % of control

OCC1OC(n2cnc3cc(Cl)c(Cl)cc32)C(O)C1O (configuration not stated)
inactive: [2] 95 % of control | [8] 95 % of control | [3] 95 % of control | dose: 39.0 mg/kg/injection, schedule: Q01DX Z (sc), vehicle: water 105 % of control | [4] 100 % of control | dose: 65.0 mg/kg/injection, schedule: Q01DX Z (sc), vehicle: water 100 % of control | [5] 90 % of control and 100 % of control | dose: 108.0 mg/kg/injection, schedule: Q01DX Z (sc), vehicle: water 95 % of control | [6] 100 % of control and 105 % of control | dose: 180.0 mg/kg/injection, schedule: Q01DX Z (sc), vehicle: water 100 % of control | [7] 105 % of control | [9] 100 % of control
